The nature of data set [1]: pH of unstabilized pravastatin Na crystals exposed to air atmosphere in different packagings. Conditions: for pH: exposed to air, pH measured in 5% aqueous solution. The format is physicochemical. The protocol:
Crystals of pravastatin Na were prepared as follows: […] The resulting clear yellow solution was cooled to 8°C and allowed to stand overnight. Formed radiating clusters of thin, long needle-like crystals were filtered, washed with ethyl acetate (20 ml) and dried. […]

Data set [2] in a line: pH of pravastatin Na crystals exposed to pure carbon dioxide in different packagings. The format is physicochemical. As to conditions: unstabilized pravastatin Na, carbon dioxide atmosphere, 5% aqueous solution. The protocol:
Therefore the samples, in case of experiments where the correspondingly stabilised pravastatin was used, were exposed to the atmosphere of pure carbon dioxide, so the changes in pH become evident in a relatively short period of time such as a day or two.
The crystals were formed by addition of 400 ml of ethyl acetate containing 2% of water.

The procedure of data set [3]: In Fig. 1a, a HPLC chromatogram of a freshly perpared sample of pravastating Na is shown. The same pravastating Na was exposed to carbon dioxide atmosphere for one hour, and then a further HPLC chromatogram was prepared (Fig. 1b).

This is an account of results in EP1296672B2, “STABLE PHARMACEUTICAL PRODUCT AND FORMULATION” (LEK Pharmaceuticals d.d., priority 2000, dated 2001).

The structures appear in SMILES notation.

Take `CC[C@H](C)C(=O)O[C@H]1C[C@H](O)C=C2C=C[C@H](C)[C@H](CC[C@@H](O)C[C@@H](O)CC(=O)[O-])[C@H]21.[Na+]` [1a, pravastatin Na]: the pH in data set [1] (time 0 hours) is on record as 8.3; in data set [1] (time 24 hours), 7.6.
With `CC[C@H](C)C(=O)O[C@H]1C[C@H](O)C=C2C=C[C@H](C)[C@H](CC[C@@H](O)C[C@@H](O)CC(=O)[O-])[C@H]21.[Na+]` [1b, pravastatin Na], the pH turned out to be 8.3 in data set [1] (time 0 hours) and 7.9 in data set [1] (time 24 hours).
On to `CC[C@H](C)C(=O)O[C@H]1C[C@H](O)C=C2C=C[C@H](C)[C@H](CC[C@@H](O)C[C@@H](O)CC(=O)[O-])[C@H]21.[Na+]` [2a, pravastatin Na], for which the pH in data set [2] (time 0 h) turned out to be 7.60; in data set [2] (time 1 h), 7.30; in data set [2] (time 5 h) it was 7.14; in data set [2] (time 70 h) it was 7.14.
With `CC[C@H](C)C(=O)O[C@H]1C[C@H](O)C=C2C=C[C@H](C)[C@H](CC[C@@H](O)C[C@@H](O)CC(=O)[O-])[C@H]21.[Na+]` [pravastatin Na], the pH of crystals in data set [1] (after one day) amounted to 7.6; in data set [1] (freshly prepared crystals), 8.3. Also, in data set [3], the “degradation products (HPLC peaks)” value was “two different peaks in front of and three peaks after the peak of pravastatin Na appear”.
